According to patent publication US10329304B2, “Compounds and methods for inhibition of hedgehog signaling and phosphodiesterase” (Vanderbilt University, priority 2014, dated 2019):
Where two headings read alike, the source gives them in different places.

Experiments:
PDE4D2 = target: T1, PDE4D2 (Homo sapiens, UniProt Q08499); experiment: In vitro PDE assay; type: biochemical; conditions: Table 9A
T1 construct: purchased BPS Biosciences (San Diego, Calif.)
Experimental: (§1) In vitro PDE profiling and dose-response assays were performed by BPS Biosciences (San Diego, Calif.). Kinetic Mechanism of inhibition studies were conducted by Millipore (St. Louis, Mo.). In brief, the PDE assay measures fluorescent polarization of FAM-AMP as FAM-cAMP is converted to FAM-AMP by PDE), the binding agent.
(§2) A series of dilutions of the test compound were prepared with 10% DMSO in assay buffer and 5 μl of the dilution was added to a 50 μl reaction so that the final concentration of DMSO is 1% in all of reactions. All of the PDE enzymatic reactions were conducted in duplicate at room temperature for 60 minutes in a 50 μl mixture containing PDE assay buffer (10 mM Tris-HCl, pH7.4, 10 mM MaCl2, 0.05% Tween 20), 100 nM FAM-cAMP, a PDE enzyme and a test compound.
(§3) After the enzymatic reaction, 100 μl of a binding solution (1:100 dilution of the binding agent, which contains the nano beads that recognize FAM-AMP, with the binding agent diluent) was added to each reaction and the reaction was performed at room temperature for 60 minutes. Fluorescence intensity was measured at an excitation of 485 nm and an emission of 528 nm using a Tecan Infinite M1000 microplate reader. Assays done by Millipore were conducted similarly with changes noted below: […]

PDE4D3 = target: T2, PDE4D3 (Homo sapiens, UniProt Q08499); experiment: In vitro PDE assay; type: biochemical; conditions: Table 9A
T2 construct: purchased BPS Biosciences (San Diego, Calif.); kinetic studies by Millipore (St. Louis, Mo.)
T2 sequence (Q08499 1-673 isoform Q08499-2): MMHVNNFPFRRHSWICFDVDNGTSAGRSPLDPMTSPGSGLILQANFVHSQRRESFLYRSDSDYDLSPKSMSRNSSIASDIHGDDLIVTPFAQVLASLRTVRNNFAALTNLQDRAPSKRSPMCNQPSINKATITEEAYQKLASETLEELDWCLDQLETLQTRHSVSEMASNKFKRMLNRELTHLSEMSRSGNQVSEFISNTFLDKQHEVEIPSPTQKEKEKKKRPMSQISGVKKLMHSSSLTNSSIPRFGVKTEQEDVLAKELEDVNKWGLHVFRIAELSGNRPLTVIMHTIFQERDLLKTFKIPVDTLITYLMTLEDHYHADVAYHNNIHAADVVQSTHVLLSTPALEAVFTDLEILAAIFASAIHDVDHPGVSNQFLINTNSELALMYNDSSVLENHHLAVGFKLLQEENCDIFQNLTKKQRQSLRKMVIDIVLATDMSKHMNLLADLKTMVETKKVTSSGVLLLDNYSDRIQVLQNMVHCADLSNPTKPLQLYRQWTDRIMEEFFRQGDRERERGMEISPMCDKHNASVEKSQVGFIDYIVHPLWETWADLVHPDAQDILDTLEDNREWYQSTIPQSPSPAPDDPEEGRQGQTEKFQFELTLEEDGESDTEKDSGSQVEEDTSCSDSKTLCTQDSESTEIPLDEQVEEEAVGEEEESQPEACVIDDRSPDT
Experimental: as §1, §2, §3

[1] = test system: Hedgehog signaling (TM3-Gli-Luc); experiment: TM3-Gli-Luc luciferase reporter assay stimulated with 20 nM SAG; type: cell-based
Summary of the method: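 TM3-Gli-Luc cells on 0.1% gelatin in DMEM/F12 with 2.5% FBS, treated 48 h with compound plus 20 nM SAG. Steady-Glo luminescence normalized to CellTiter-Glo viability, DMSO-only (no SAG) background subtracted, percent of SAG control. EC50 averaged from ≥2 independent days ±SEM.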

PDE4D = PDE4D (Homo sapiens, UniProt Q08499); experiment: PDE4 inhibition assay (PDE4D IC50); type: biochemical; conditions: mean ± SEM, normalized to DMSO; read-out: PDE4D IC50
Chain of PDE4D (Q08499 whole entry): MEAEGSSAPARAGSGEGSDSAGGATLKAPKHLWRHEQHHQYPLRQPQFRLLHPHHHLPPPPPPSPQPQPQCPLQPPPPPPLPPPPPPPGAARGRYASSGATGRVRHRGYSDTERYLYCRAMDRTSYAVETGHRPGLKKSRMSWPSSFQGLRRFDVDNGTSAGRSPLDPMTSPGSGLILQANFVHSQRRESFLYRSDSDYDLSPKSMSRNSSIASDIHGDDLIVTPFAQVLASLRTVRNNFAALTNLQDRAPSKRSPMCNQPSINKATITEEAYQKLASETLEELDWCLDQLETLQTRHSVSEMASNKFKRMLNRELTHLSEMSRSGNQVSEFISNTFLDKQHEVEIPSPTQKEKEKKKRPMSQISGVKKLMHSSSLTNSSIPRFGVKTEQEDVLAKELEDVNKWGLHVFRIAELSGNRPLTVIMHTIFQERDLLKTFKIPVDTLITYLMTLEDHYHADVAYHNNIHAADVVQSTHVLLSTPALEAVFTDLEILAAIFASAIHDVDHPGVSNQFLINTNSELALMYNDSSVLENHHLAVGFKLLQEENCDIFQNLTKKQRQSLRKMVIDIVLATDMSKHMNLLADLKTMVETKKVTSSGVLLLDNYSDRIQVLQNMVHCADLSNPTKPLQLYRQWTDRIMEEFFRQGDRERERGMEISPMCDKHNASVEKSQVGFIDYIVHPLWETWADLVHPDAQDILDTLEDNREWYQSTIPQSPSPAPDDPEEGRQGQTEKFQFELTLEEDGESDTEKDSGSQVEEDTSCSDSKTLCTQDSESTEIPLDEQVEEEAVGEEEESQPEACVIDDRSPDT
Experimental: as §1, §2
After the enzymatic reaction, 100 μl of a binding solution (1:100 dilution of the binding agent, which contains the nano beads that recognize FAM-AMP, with the binding agent diluent) was added to each reaction and the reaction was performed at room temperature for 60 minutes. Fluorescence intensity was measured at an excitation of 485 nm and an emission of 528 nm using a Tecan Infinite M1000 microplate reader. Assays done by Millipore were conducted similarly with changes noted below:
Hedgehog signaling inhibition and PDE4 inhibition of various compounds disclosed herein was assayed as described herein above.

[2] = Lipophilic efficiency (LipE = pEC50 − cLogP) and cLogP
Experimental: Therefore, we prioritized phenotypic analog evaluation in the Gli-responsive luciferase reporter line TM3-Gli-Luc stimulated with 20 nM Smo agonist (SAG) while concurrently monitoring non-specific cellular toxicity. Additionally, lipophilic efficiency (LipE), a concurrent readout of a compound's potency (pEC50) and lipophilicity (cLogP) derived by subtracting the latter from the former, was utilized to optimize solubility properties (Table 12B), allowing for straightforward tracking of compounds with improvements in both parameters.

T1 sequence (Q08499 303-809): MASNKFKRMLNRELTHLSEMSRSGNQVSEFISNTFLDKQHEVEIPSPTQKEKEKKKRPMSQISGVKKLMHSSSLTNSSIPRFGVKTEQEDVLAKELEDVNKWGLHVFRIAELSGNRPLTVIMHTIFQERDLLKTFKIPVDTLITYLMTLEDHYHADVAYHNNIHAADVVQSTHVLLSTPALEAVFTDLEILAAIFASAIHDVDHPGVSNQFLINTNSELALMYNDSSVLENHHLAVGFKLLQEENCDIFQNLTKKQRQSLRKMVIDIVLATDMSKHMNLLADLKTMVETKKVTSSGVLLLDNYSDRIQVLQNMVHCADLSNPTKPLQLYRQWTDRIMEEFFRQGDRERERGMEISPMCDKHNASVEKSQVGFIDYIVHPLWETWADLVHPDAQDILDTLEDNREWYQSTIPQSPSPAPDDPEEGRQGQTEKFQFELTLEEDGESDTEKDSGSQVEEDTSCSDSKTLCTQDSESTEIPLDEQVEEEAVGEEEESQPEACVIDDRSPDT

Row | Structure (SMILES) | IC50 (PDE4D2) [µM] | IC50 (PDE4D3) [µM] | also measured
1 | C=C(C)Cn1c(SCC(=O)N2CCCC[C@H]2C)nc2sc3c(c2c1=O)CCCC3 [Formula 1ANQ] | 1.2 | 1.7 | TM3 G8 Luciferase % Inh., 0.5 pM ([1]; 0.5 pM as printed): 17.4%
2 | C=CCn1c(SCC(=O)c2ccccn2)nc2sc3c(c2c1=O)CCCC3 [Formula 1KL1] | 25 | 62 | –
3 | C=CCn1c(SCC(=O)c2ccncc2)nc2sc3c(c2c1=O)CCCC3 [Formula 1KMH] | 5 | 8.2 | –
4 | C=CCn1c(SCC(=O)N2CCCC[C@H]2C)nc2sc3c(c2c1=O)CCCC3 [Formula 1KMR] | 7.6 | 11 | –
5 | C=CCn1c(SCC(=O)N2Cc3ccccc3C2)nc2sc3c(c2c1=O)CCCC3 [Formula 1KYW] | > 100 | > 100 | –
6 | C=CCn1c(SCC(=O)N2CCOCC2)nc2sc3c(c2c1=O)CCCC3 [Formula 1L4R] | > 100 | > 100 | EC50 ([1]; Table 9A, read-out: TM3 G8 Luciferase EC 50): 2.82 µM
7 | C=C(C)Cn1c(SCC(=O)c2cccs2)nc2sc3c(c2c1=O)CCCC3 [Formula 3] | – | – | IC50 (PDE4D): 0.38 ± 0.02 µM; EC50 ([1]; 20 nM SAG, mean ± standard error of the mean, read-out: TM3-Gli-Luc EC50): 1.34 ± 0.002 µM; EC50 ([1]; TM3-Gli-Luc reporter line stimulated with 20 nM SAG, mean ± SEM, Table 14, read-out: TM3-Gli-Luc EC50): 1.34 ± 0.002 µM; LipE ([2]; Calculated as pEC50 - cLogP, Molinspiration Cheminformatics): 0.73; LipE ([2]; pEC50 - cLogP, Table 14): 0.73
